In PubChem BioAssay (NCI) one finds GI50 and TGI data, which are given here for 6 molecules.

SMILES strings stand for the structures.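 Results reflect a 48-hour exposure of cells in 96-well plates to compound at five concentrations. GI50: concentration for 50% inhibition of growth. Definition used: TGI = concentration required for complete inhibition of growth.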

Test systems include 786-0 renal; CCRF-CEM leukemia; EKVX NSCLC; HCT-15 colon; HOP-92 NSCLC; HT29 colon; MDA-MB-231 breast; NCI-H522 lung; OVCAR-3 ovarian; T-47D breast.
What all share (assay): growth of human tumour cells (NCI), 48 h

For `COc1cccc2c1c1nc3cc(C)c(C)cc3nc1n2CCN(C)C`, the GI50 in the assay on 786-0 renal is 1.35 µM; in the assay on CCRF-CEM leukemia, 1.81 µM; in the assay on EKVX NSCLC it was 2.29 µM; in the assay on HCT-15 colon, 1.64 µM; in the assay with HOP-92 NSCLC, 1.13 µM; with HT29 colon it was 1.68 µM. Besides, the GI50 in the assay on MDA-MB-231 breast is 1.87 µM; in the assay with NCI-H522 lung, 2.39 µM; in the assay on OVCAR-3 ovarian, 2.22 µM; in the assay on T-47D breast, 2.76 µM. The TGI amounted to 5.53 µM in the assay with 786-0 renal; 7.3 µM with CCRF-CEM leukemia; 7.33 µM in the assay on EKVX NSCLC; 11.2 µM in the assay on HCT-15 colon; 6.73 µM with HOP-92 NSCLC; 10.7 µM in the assay on HT29 colon. For the same molecule, the values for the TGI in the assay on MDA-MB-231 breast, in the assay on NCI-H522 lung and with T-47D breast were 9.52 µM, 8.65 µM and 13.6 µM, respectively.
With `CCCC(=O)NNc1[nH]c(-c2ccc(OC)cc2)cc1C(=O)OCC`, the GI50 with 786-0 renal was 20.1 µM; in the assay on CCRF-CEM leukemia it was 2.82 µM; with EKVX NSCLC, 16.9 µM; in the assay with HCT-15 colon, 9.47 µM; in the assay on HOP-92 NSCLC it was 18.6 µM; in the assay with HT29 colon, 17.4 µM. Besides, the GI50 in the assay on MDA-MB-231 breast is 16.6 µM; in the assay with NCI-H522 lung, 24 µM; in the assay on OVCAR-3 ovarian, 15.5 µM; in the assay on T-47D breast, 15.3 µM. The TGI in the assay on 786-0 renal was 34.9 µM; in the assay on CCRF-CEM leukemia, over 100 µM; with EKVX NSCLC, 32.7 µM; in the assay on HCT-15 colon, 21.3 µM; in the assay with HOP-92 NSCLC, 35.5 µM; in the assay with HT29 colon it was 34.3 µM. Besides, the TGI came to 30.2 µM with MDA-MB-231 breast, 50 µM in the assay on NCI-H522 lung, 31.1 µM with OVCAR-3 ovarian and 48.6 µM with T-47D breast.
`COc1cc(-c2nc3ccccc3s2)ccc1OCc1nc2n(n1)S(=O)(=O)c1ccccc1N2C`: the GI50 in the assay with 786-0 renal was over 100 µM; in the assay on CCRF-CEM leukemia it was over 100 µM; in the assay on EKVX NSCLC, over 100 µM; in the assay with HCT-15 colon, over 100 µM; in the assay on HOP-92 NSCLC it was 43.9 µM; in the assay with HT29 colon, over 100 µM. Further, the GI50 with MDA-MB-231 breast is over 100 µM; with NCI-H522 lung, 96.8 µM; in the assay on OVCAR-3 ovarian it was 62.4 µM; in the assay on T-47D breast, over 100 µM. Also, the TGI with 786-0 renal, with CCRF-CEM leukemia, in the assay with EKVX NSCLC, with HCT-15 colon, with HOP-92 NSCLC and in the assay on HT29 colon was over 100 µM throughout. The TGI in the assay with MDA-MB-231 breast, in the assay on NCI-H522 lung, in the assay on OVCAR-3 ovarian and with T-47D breast was over 100 µM throughout.
On to `CN(CCC(=O)O)S(=O)(=O)c1ccccc1`, for which the TGI with 786-0 renal, with CCRF-CEM leukemia, in the assay on EKVX NSCLC, with HCT-15 colon, in the assay with HOP-92 NSCLC and with HT29 colon was over 100 µM throughout. Also, the TGI in the assay with MDA-MB-231 breast, in the assay with NCI-H522 lung, in the assay on OVCAR-3 ovarian and in the assay on T-47D breast was over 100 µM throughout.
`CC(=O)OCC1OC(S[As](C)C)C(OC(C)=O)C1OC(C)=O` (stereo not given): the GI50 in the assay with 786-0 renal is 0.176 µM; in the assay with CCRF-CEM leukemia, 0.19 µM; in the assay on EKVX NSCLC it was 1.2 µM; in the assay with HCT-15 colon, 0.256 µM; in the assay with HOP-92 NSCLC it was 0.328 µM; with MDA-MB-231 breast, 0.404 µM. In addition, the GI50 in the assay on NCI-H522 lung was 0.139 µM; in the assay with OVCAR-3 ovarian it was 0.0391 µM; in the assay with T-47D breast it was 0.62 µM. For the same molecule, the TGI in the assay on 786-0 renal came to 0.77 µM; in the assay with CCRF-CEM leukemia, 1.34 µM; in the assay on EKVX NSCLC, 9.05 µM; in the assay with HCT-15 colon it was 1.08 µM; in the assay on HOP-92 NSCLC it was 2.57 µM; in the assay with MDA-MB-231 breast, 2.34 µM. Also, the TGI in the assay on NCI-H522 lung was determined as 0.528 µM; in the assay on OVCAR-3 ovarian, 0.151 µM; with T-47D breast, 17.3 µM.
In the case of `CC1(C)C2CCC13C(=O)C1OC3(C2)C2C(=O)c3c(O)ccc(O)c3C(=O)C12` (stereo not given), the GI50 is 10.5 µM with 786-0 renal; 4.45 µM in the assay with CCRF-CEM leukemia; over 100 µM in the assay on EKVX NSCLC; 18.5 µM in the assay with HCT-15 colon; 17.8 µM in the assay with HOP-92 NSCLC; 34.1 µM in the assay on HT29 colon. Moreover, the GI50 in the assay with MDA-MB-231 breast was 44.2 µM; in the assay on NCI-H522 lung, 38.8 µM; with T-47D breast, 36.7 µM. Besides, the TGI is 24.7 µM with 786-0 renal; over 46.9 µM in the assay with CCRF-CEM leukemia; over 100 µM in the assay with EKVX NSCLC; over 54 µM in the assay with HCT-15 colon; 46.8 µM with HOP-92 NSCLC; over 83.4 µM with HT29 colon. In addition, the figures for the TGI with MDA-MB-231 breast, with NCI-H522 lung and in the assay on T-47D breast were over 70.3 µM, over 100 µM and over 64.8 µM, respectively.
